Results on 9 compounds are retold here after PubChem BioAssay (NCI).

Molecules are shown by their SMILES.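 Tested at 5 concentrations; 48 h exposure; 96-well plates; endpoints linearly interpolated, else capped at highest concentration. At the TGI there is no net growth.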

Some test systems named below: MCF7 breast; SF-268 CNS; NCI-H522 lung; MDA-MB-231 breast; RXF 393 renal; T-47D breast; KM12 colon; SK-MEL-28 melanoma; OVCAR-8 ovarian; U251 CNS; SN12C renal; SK-MEL-2 melanoma; OVCAR-5 ovarian.
Experiment in all cases: inhibition of tumour cell growth, NCI panel, 48 h

Turning to `O=S(=O)(O)c1ccc(N=Nc2c(O)ccc3ccccc23)cc1`, the TGI in the assay on MCF7 breast, with SF-268 CNS, with NCI-H522 lung, with MDA-MB-231 breast, in the assay with RXF 393 renal and with T-47D breast was above 100 µM each time. In addition, the TGI in the assay with KM12 colon, with SK-MEL-28 melanoma, in the assay on OVCAR-8 ovarian, in the assay with U251 CNS, with SN12C renal and with SK-MEL-2 melanoma was above 100 µM throughout. The compound also had a TGI in the assay with OVCAR-5 ovarian above 100 µM.
As for `[N-]=[N+]=NC1(c2ccccc2)C(=O)c2cccc3c4ccccc4n(c23)C1=O` (configuration not stated), the TGI in the assay on MCF7 breast, in the assay on SF-268 CNS, with NCI-H522 lung, with MDA-MB-231 breast, in the assay on RXF 393 renal and with T-47D breast was above 100 µM in each case. The TGI in the assay on KM12 colon, in the assay on SK-MEL-28 melanoma, in the assay with OVCAR-8 ovarian, in the assay on U251 CNS, in the assay with SN12C renal and in the assay on SK-MEL-2 melanoma was above 100 µM each time. In addition, the TGI in the assay on OVCAR-5 ovarian was above 100 µM.
Take `COc1ccc2c(c1OC)C(Br)CCC(Br)(Br)C2=O` (configuration not stated): the TGI worked out at 21.3 µM in the assay with MCF7 breast; 27.4 µM with SF-268 CNS; 3.38 µM in the assay on NCI-H522 lung; 29.9 µM with MDA-MB-231 breast; 15.1 µM in the assay with RXF 393 renal; 43 µM in the assay on T-47D breast. The TGI came to 32.2 µM in the assay with KM12 colon; 29.3 µM in the assay with SK-MEL-28 melanoma; 21.9 µM in the assay with OVCAR-8 ovarian; 30.4 µM in the assay on U251 CNS; 16.7 µM in the assay with SN12C renal; 28 µM in the assay with SK-MEL-2 melanoma. In the assay on OVCAR-5 ovarian, the TGI came out at 31.8 µM.
With `N#Cc1c(Cl)cccc1Oc1ccc(S(=O)(=O)/N=C(\NO)Nc2ccc(Cl)cc2)cc1`, the TGI amounted to 46.2 µM in the assay on MCF7 breast; 46.9 µM with SF-268 CNS; 35.6 µM in the assay with NCI-H522 lung; 37.4 µM in the assay with MDA-MB-231 breast; 32.2 µM in the assay on RXF 393 renal; 28.3 µM in the assay with T-47D breast. Also, the TGI in the assay with KM12 colon came to 31.2 µM; with SK-MEL-28 melanoma, 41 µM; in the assay on OVCAR-8 ovarian it was 43.5 µM; in the assay on U251 CNS it was 33.1 µM; in the assay with SN12C renal, 29.4 µM; in the assay with SK-MEL-2 melanoma, 38.5 µM. The compound also had a TGI in the assay with OVCAR-5 ovarian of 34.9 µM.
On to `CCOC(=O)C(C)c1nc2cc(F)c(N3CCOCC3)cc2[nH]c1=O` (configuration not stated), for which the TGI in the assay with MCF7 breast, in the assay with SF-268 CNS, in the assay on NCI-H522 lung, in the assay on MDA-MB-231 breast, in the assay on RXF 393 renal and with T-47D breast was above 100 µM each time. Moreover, the TGI with KM12 colon, with SK-MEL-28 melanoma, with OVCAR-8 ovarian, in the assay on U251 CNS, in the assay on SN12C renal and in the assay with SK-MEL-2 melanoma was above 100 µM each time. The same compound had a TGI in the assay with OVCAR-5 ovarian above 100 µM.
As to `Cc1cccc2c1CC(C1OC(=O)c3c(C)cccc31)C2=O` (configuration not stated), the TGI in the assay with MCF7 breast, in the assay with SF-268 CNS, in the assay with NCI-H522 lung, in the assay with MDA-MB-231 breast, in the assay with RXF 393 renal and in the assay with T-47D breast was above 100 µM throughout. Moreover, the TGI with KM12 colon, in the assay on SK-MEL-28 melanoma, in the assay with OVCAR-8 ovarian, in the assay with U251 CNS, in the assay with SN12C renal and in the assay on SK-MEL-2 melanoma was above 100 µM each time. The TGI in the assay with OVCAR-5 ovarian was above 100 µM.
Take `O=C1CSC2(CC(/C=C/c3cccc(Br)c3)=NN2c2cccc(S(=O)(=O)O)c2)N1c1nc2ccccc2s1` (configuration not stated): the TGI in the assay with MCF7 breast, with SF-268 CNS, in the assay with NCI-H522 lung, in the assay on MDA-MB-231 breast, in the assay on RXF 393 renal and in the assay on T-47D breast was above 100 µM in each case. Also, the TGI in the assay with KM12 colon, in the assay with SK-MEL-28 melanoma, in the assay with OVCAR-8 ovarian, in the assay on U251 CNS, in the assay on SN12C renal and in the assay on SK-MEL-2 melanoma was above 100 µM in each case. Also, the TGI with OVCAR-5 ovarian was above 100 µM.
For `CC(C)C(=O)CC(Sc1ccc(N)cc1)c1ccccc1` (configuration not stated), the TGI in the assay on MCF7 breast is 47.1 µM; with SF-268 CNS, above 100 µM; in the assay on NCI-H522 lung, 30.2 µM; in the assay on MDA-MB-231 breast, 60.5 µM; in the assay with RXF 393 renal, 89.1 µM; in the assay with T-47D breast, 71.6 µM. The TGI in the assay on KM12 colon was above 100 µM; in the assay on SK-MEL-28 melanoma, above 100 µM; with OVCAR-8 ovarian, 96.9 µM; with U251 CNS, 32.9 µM; in the assay with SN12C renal, 64.9 µM; in the assay with SK-MEL-2 melanoma, 61.8 µM. The TGI in the assay on OVCAR-5 ovarian is above 100 µM.
In the case of `CN(O)C(=O)c1ccc(OCc2cccc(Cl)c2)cc1`, the TGI in the assay with MCF7 breast is above 100 µM; in the assay on SF-268 CNS it was above 100 µM; in the assay on NCI-H522 lung, above 100 µM; in the assay with MDA-MB-231 breast, above 100 µM; in the assay on RXF 393 renal it was above 100 µM; in the assay on T-47D breast it was 98.6 µM. The TGI was above 100 µM in the assay on KM12 colon; above 100 µM in the assay with SK-MEL-28 melanoma; above 95.9 µM in the assay with OVCAR-8 ovarian; above 100 µM in the assay with U251 CNS; above 95.1 µM in the assay with SN12C renal; above 100 µM in the assay with SK-MEL-2 melanoma. Besides, the TGI in the assay on OVCAR-5 ovarian is above 100 µM.
